{"source": "patent US4367339A", "about": "“Substituted N-nitroaniline compounds and inorganic and organic salts thereof useful for enhancing auxiliary branching, canopy flowering and crop yield of plant and as lodging inhibitors therefor” (priority 1980, dated 1983)", "tested_on": "barley (Hordeum vulgare, var. Georgie)", "assay": "Antilodging effects on barley", "type": "in vivo", "parameters": "key to Tiller formation / Stem stiffness: 5 = no increase over controls, 3 = moderate significant increase", "conditions": "for Stem stiffness / Tiller formation: control 5; for Weight Dry: control 5.2; for Weight Fresh: control 49.1; for Height: control 53.1; for Phytotoxicity: three weeks after spraying", "method": "In this experiment the procedure of Example 7 is repeated excepting that the crop used was barley (Hordeum vulgare, var. Georgie; European lodging prone variety). The plants are treated at the 3-4 leaf stage. Plants are watered prior to treatment and then sprayed to provide the kg/ha rate of test compound desired. After spraying the plants are placed on greenhouse benches and watered and fertilized in accordance with normal greenhouse procedures.\nThree weeks after spraying the plants are measured and harvested. All treatments are replicated six times and companions are made against untreated controls.\nThe following rating system is used:\n5=No increase over controls\n3=Moderate, significant increase over controls.", "note": "Counter-ions that a name gives are not always drawn."}
{"smiles": "O=[N+]([O-])Nc1c(Br)cccc1Br", "note": "[2,6-Dibromo-N--nitroaniline]", "values": [{"measurement": "Stem stiffness", "setting": "rate 0.25 kg/ha", "result": 4}, {"measurement": "Tiller formation", "setting": "rate 0.25 kg/ha", "result": 4}, {"measurement": "Weight Dry", "setting": "rate 0.25 kg/ha", "result": 6.2, "unit": "g"}, {"measurement": "Weight Fresh", "setting": "rate 0.25 kg/ha", "result": 58.3, "unit": "g"}, {"measurement": "Height", "setting": "rate 0.25 kg/ha", "result": 50.5, "unit": "cm"}, {"measurement": "Phytotoxicity", "setting": "rate 0.25 kg/ha", "result": "5 (No increase over controls)"}, {"measurement": "Stem stiffness", "setting": "rate 0.5 kg/ha", "result": 4}, {"measurement": "Tiller formation", "setting": "rate 0.5 kg/ha", "result": "3 (Moderate, significant increase over controls.)"}, {"measurement": "Weight Dry", "setting": "rate 0.5 kg/ha", "result": 6.9, "unit": "g"}, {"measurement": "Weight Fresh", "setting": "rate 0.5 kg/ha", "result": 67.5, "unit": "g"}, {"measurement": "Height", "setting": "rate 0.5 kg/ha", "result": 53.0, "unit": "cm"}, {"measurement": "Phytotoxicity", "setting": "rate 0.5 kg/ha", "result": "5 (No increase over controls)"}, {"measurement": "Stem stiffness", "setting": "rate 1.0 kg/ha", "result": 4}, {"measurement": "Tiller formation", "setting": "rate 1.0 kg/ha", "result": "3 (Moderate, significant increase over controls.)"}, {"measurement": "Weight Dry", "setting": "rate 1.0 kg/ha", "result": 5.4, "unit": "g"}, {"measurement": "Weight Fresh", "setting": "rate 1.0 kg/ha", "result": 55.8, "unit": "g"}, {"measurement": "Height", "setting": "rate 1.0 kg/ha", "result": 48.3, "unit": "cm"}, {"measurement": "Phytotoxicity", "setting": "rate 1.0 kg/ha", "result": "5 (No increase over controls)"}]}
{"smiles": "N#Cc1ccc(N[N+](=O)[O-])c(Br)c1", "note": "[2-Bromo-4-cyano-N--nitroaniline]", "values": [{"measurement": "Stem stiffness", "setting": "rate 0.25 kg/ha", "result": "5 (No increase over controls)"}, {"measurement": "Tiller formation", "setting": "rate 0.25 kg/ha", "result": 4}, {"measurement": "Weight Dry", "setting": "rate 0.25 kg/ha", "result": 7.4, "unit": "g"}, {"measurement": "Weight Fresh", "setting": "rate 0.25 kg/ha", "result": 62.2, "unit": "g"}, {"measurement": "Height", "setting": "rate 0.25 kg/ha", "result": 53.0, "unit": "cm"}, {"measurement": "Phytotoxicity", "setting": "rate 0.25 kg/ha", "result": "5 (No increase over controls)"}, {"measurement": "Stem stiffness", "setting": "rate 0.5 kg/ha", "result": "5 (No increase over controls)"}, {"measurement": "Tiller formation", "setting": "rate 0.5 kg/ha", "result": 4}, {"measurement": "Weight Dry", "setting": "rate 0.5 kg/ha", "result": 7.0, "unit": "g"}, {"measurement": "Weight Fresh", "setting": "rate 0.5 kg/ha", "result": 59.2, "unit": "g"}, {"measurement": "Height", "setting": "rate 0.5 kg/ha", "result": 53.3, "unit": "cm"}, {"measurement": "Phytotoxicity", "setting": "rate 0.5 kg/ha", "result": "5 (No increase over controls)"}, {"measurement": "Stem stiffness", "setting": "rate 1.0 kg/ha", "result": "5 (No increase over controls)"}, {"measurement": "Tiller formation", "setting": "rate 1.0 kg/ha", "result": "5 (No increase over controls)"}, {"measurement": "Weight Dry", "setting": "rate 1.0 kg/ha", "result": 7.0, "unit": "g"}, {"measurement": "Weight Fresh", "setting": "rate 1.0 kg/ha", "result": 60.9, "unit": "g"}, {"measurement": "Height", "setting": "rate 1.0 kg/ha", "result": 53.2, "unit": "cm"}, {"measurement": "Phytotoxicity", "setting": "rate 1.0 kg/ha", "result": "5 (No increase over controls)"}]}
{"smiles": "CCc1cccc(C(C)C)c1N[N+](=O)[O-]", "note": "[2-Ethyl-6-isopropyl-N--nitroaniline]", "values": [{"measurement": "Stem stiffness", "setting": "rate 0.25 kg/ha", "result": 4}, {"measurement": "Tiller formation", "setting": "rate 0.25 kg/ha", "result": 4}, {"measurement": "Weight Fresh", "setting": "rate 0.25 kg/ha", "result": 50.5, "unit": "g"}, {"measurement": "Height", "setting": "rate 0.25 kg/ha", "result": 47.7, "unit": "cm"}, {"measurement": "Phytotoxicity", "setting": "rate 0.25 kg/ha", "result": "5 (No increase over controls)"}, {"measurement": "Stem stiffness", "setting": "rate 0.5 kg/ha", "result": 4}, {"measurement": "Tiller formation", "setting": "rate 0.5 kg/ha", "result": "3 (Moderate, significant increase over controls.)"}, {"measurement": "Weight Dry", "setting": "rate 0.5 kg/ha", "result": 5.9, "unit": "g"}, {"measurement": "Weight Fresh", "setting": "rate 0.5 kg/ha", "result": 59.3, "unit": "g"}, {"measurement": "Height", "setting": "rate 0.5 kg/ha", "result": 48.7, "unit": "cm"}, {"measurement": "Phytotoxicity", "setting": "rate 0.5 kg/ha", "result": "5 (No increase over controls)"}, {"measurement": "Stem stiffness", "setting": "rate 1.0 kg/ha", "result": 4}, {"measurement": "Tiller formation", "setting": "rate 1.0 kg/ha", "result": 4}, {"measurement": "Weight Dry", "setting": "rate 1.0 kg/ha", "result": 5.4, "unit": "g"}, {"measurement": "Weight Fresh", "setting": "rate 1.0 kg/ha", "result": 56.5, "unit": "g"}, {"measurement": "Height", "setting": "rate 1.0 kg/ha", "result": 51.0, "unit": "cm"}, {"measurement": "Phytotoxicity", "setting": "rate 1.0 kg/ha", "result": "5 (No increase over controls)"}]}
{"smiles": "Cc1cc(C)c(N[N+](=O)[O-])c(I)c1", "note": "[2-Iodo-4,6-dimethyl-N--nitroaniline]", "values": [{"measurement": "Stem stiffness", "setting": "rate 0.25 kg/ha", "result": "5 (No increase over controls)"}, {"measurement": "Tiller formation", "setting": "rate 0.25 kg/ha", "result": "5 (No increase over controls)"}, {"measurement": "Weight Fresh", "setting": "rate 0.25 kg/ha", "result": 54.1, "unit": "g"}, {"measurement": "Height", "setting": "rate 0.25 kg/ha", "result": 52.7, "unit": "cm"}, {"measurement": "Phytotoxicity", "setting": "rate 0.25 kg/ha", "result": "5 (No increase over controls)"}, {"measurement": "Stem stiffness", "setting": "rate 0.5 kg/ha", "result": "5 (No increase over controls)"}, {"measurement": "Tiller formation", "setting": "rate 0.5 kg/ha", "result": "5 (No increase over controls)"}, {"measurement": "Weight Fresh", "setting": "rate 0.5 kg/ha", "result": 52.7, "unit": "g"}, {"measurement": "Height", "setting": "rate 0.5 kg/ha", "result": 52.5, "unit": "cm"}, {"measurement": "Phytotoxicity", "setting": "rate 0.5 kg/ha", "result": "5 (No increase over controls)"}, {"measurement": "Stem stiffness", "setting": "rate 1.0 kg/ha", "result": "5 (No increase over controls)"}, {"measurement": "Tiller formation", "setting": "rate 1.0 kg/ha", "result": "5 (No increase over controls)"}, {"measurement": "Weight Dry", "setting": "rate 1.0 kg/ha", "result": 6.2, "unit": "g"}, {"measurement": "Weight Fresh", "setting": "rate 1.0 kg/ha", "result": 58.0, "unit": "g"}, {"measurement": "Height", "setting": "rate 1.0 kg/ha", "result": 53.5, "unit": "cm"}, {"measurement": "Phytotoxicity", "setting": "rate 1.0 kg/ha", "result": "5 (No increase over controls)"}]}
{"smiles": "O=[N+]([O-])Nc1c(Br)cccc1Br", "note": "[Sodium salt of 2,6-dibromo-N--nitroaniline]", "values": [{"measurement": "Stem stiffness", "setting": "rate 0.25 kg/ha", "result": 4}, {"measurement": "Tiller formation", "setting": "rate 0.25 kg/ha", "result": 4}, {"measurement": "Weight Fresh", "setting": "rate 0.25 kg/ha", "result": 55.6, "unit": "g"}, {"measurement": "Height", "setting": "rate 0.25 kg/ha", "result": 50.2, "unit": "cm"}, {"measurement": "Phytotoxicity", "setting": "rate 0.25 kg/ha", "result": "5 (No increase over controls)"}, {"measurement": "Stem stiffness", "setting": "rate 0.5 kg/ha", "result": 4}, {"measurement": "Tiller formation", "setting": "rate 0.5 kg/ha", "result": "3 (Moderate, significant increase over controls.)"}, {"measurement": "Weight Dry", "setting": "rate 0.5 kg/ha", "result": 6.4, "unit": "g"}, {"measurement": "Weight Fresh", "setting": "rate 0.5 kg/ha", "result": 57.6, "unit": "g"}, {"measurement": "Height", "setting": "rate 0.5 kg/ha", "result": 47.2, "unit": "cm"}, {"measurement": "Phytotoxicity", "setting": "rate 0.5 kg/ha", "result": "5 (No increase over controls)"}, {"measurement": "Stem stiffness", "setting": "rate 1.0 kg/ha", "result": "3 (Moderate, significant increase over controls.)"}, {"measurement": "Tiller formation", "setting": "rate 1.0 kg/ha", "result": "3 (Moderate, significant increase over controls.)"}, {"measurement": "Weight Fresh", "setting": "rate 1.0 kg/ha", "result": 55.5, "unit": "g"}, {"measurement": "Height", "setting": "rate 1.0 kg/ha", "result": 47.0, "unit": "cm"}, {"measurement": "Phytotoxicity", "setting": "rate 1.0 kg/ha", "result": "5 (No increase over controls)"}]}
{"smiles": "O=[N+]([O-])Nc1cccc(Cl)c1Cl", "note": "[Sodium salt with 2,3-dichloro-N--nitroaniline]", "values": [{"measurement": "Stem stiffness", "setting": "rate 0.25 kg/ha", "result": "5 (No increase over controls)"}, {"measurement": "Tiller formation", "setting": "rate 0.25 kg/ha", "result": "5 (No increase over controls)"}, {"measurement": "Weight Dry", "setting": "rate 0.25 kg/ha", "result": 8.2, "unit": "g"}, {"measurement": "Weight Fresh", "setting": "rate 0.25 kg/ha", "result": 60.9, "unit": "g"}, {"measurement": "Height", "setting": "rate 0.25 kg/ha", "result": 53.3, "unit": "cm"}, {"measurement": "Phytotoxicity", "setting": "rate 0.25 kg/ha", "result": "5 (No increase over controls)"}, {"measurement": "Stem stiffness", "setting": "rate 0.5 kg/ha", "result": "5 (No increase over controls)"}, {"measurement": "Tiller formation", "setting": "rate 0.5 kg/ha", "result": "5 (No increase over controls)"}, {"measurement": "Weight Dry", "setting": "rate 0.5 kg/ha", "result": 7.1, "unit": "g"}, {"measurement": "Weight Fresh", "setting": "rate 0.5 kg/ha", "result": 58.7, "unit": "g"}, {"measurement": "Height", "setting": "rate 0.5 kg/ha", "result": 53.8, "unit": "cm"}, {"measurement": "Phytotoxicity", "setting": "rate 0.5 kg/ha", "result": "5 (No increase over controls)"}, {"measurement": "Stem stiffness", "setting": "rate 1.0 kg/ha", "result": "5 (No increase over controls)"}, {"measurement": "Tiller formation", "setting": "rate 1.0 kg/ha", "result": "5 (No increase over controls)"}, {"measurement": "Weight Dry", "setting": "rate 1.0 kg/ha", "result": 6.0, "unit": "g"}, {"measurement": "Weight Fresh", "setting": "rate 1.0 kg/ha", "result": 57.5, "unit": "g"}, {"measurement": "Height", "setting": "rate 1.0 kg/ha", "result": 52.2, "unit": "cm"}, {"measurement": "Phytotoxicity", "setting": "rate 1.0 kg/ha", "result": "5 (No increase over controls)"}]}
